US9751854B2 (Millennium Pharmaceuticals, Inc., priority 2014, dated 2017)

molecular target: human VPS34 (Homo sapiens (Human), UniProt Q8NEB9); test: Human VPS34 enzyme assay (Adapta TR-FRET ADP detection); assay type: biochemical; details: IC50 range class
Sequence (Q8NEB9 whole entry): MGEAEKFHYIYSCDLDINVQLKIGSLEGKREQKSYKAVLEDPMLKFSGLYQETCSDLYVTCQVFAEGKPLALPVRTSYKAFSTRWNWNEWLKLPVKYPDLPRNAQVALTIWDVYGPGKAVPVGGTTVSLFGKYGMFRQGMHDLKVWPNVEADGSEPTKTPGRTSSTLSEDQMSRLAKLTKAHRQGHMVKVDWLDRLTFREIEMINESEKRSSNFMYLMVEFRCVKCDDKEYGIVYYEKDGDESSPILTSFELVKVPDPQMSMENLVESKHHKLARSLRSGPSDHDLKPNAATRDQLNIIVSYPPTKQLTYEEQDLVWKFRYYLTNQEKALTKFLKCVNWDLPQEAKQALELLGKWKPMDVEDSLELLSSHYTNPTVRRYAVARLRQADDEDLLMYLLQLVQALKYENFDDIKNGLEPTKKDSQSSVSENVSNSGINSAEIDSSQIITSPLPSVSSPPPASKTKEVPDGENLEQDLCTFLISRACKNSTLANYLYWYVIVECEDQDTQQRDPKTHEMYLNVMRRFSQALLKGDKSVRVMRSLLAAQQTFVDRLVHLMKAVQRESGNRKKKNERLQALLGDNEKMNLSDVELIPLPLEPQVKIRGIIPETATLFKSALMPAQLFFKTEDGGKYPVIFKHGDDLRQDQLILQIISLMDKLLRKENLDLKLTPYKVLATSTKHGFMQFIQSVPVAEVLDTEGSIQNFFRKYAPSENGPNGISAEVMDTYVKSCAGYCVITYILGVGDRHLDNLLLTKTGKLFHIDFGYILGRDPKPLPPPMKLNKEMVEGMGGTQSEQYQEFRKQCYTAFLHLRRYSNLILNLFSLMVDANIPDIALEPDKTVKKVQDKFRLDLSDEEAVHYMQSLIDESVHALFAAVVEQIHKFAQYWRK

| SMILES | IC50 |
| --- | --- |
| CC(=O)Nc1cc(-c2cnc(Cl)c(N3CCCNS3(=O)=O)c2C)ccn1 [Compound I-473, N-[6-chloro-5-(1,1-dioxido-1,2,6-thiadiazinan-2-yl)-4-methyl-3,4′-bipyridin-2′-yl]acetamide] | 10 to 50 nM |
| COc1ncc(-c2ccnc(NC(C)=O)c2)cc1C(=O)N(C)c1ccc(F)cc1F [Compound I-423, 2′-aceramido-N-(2,4-difluorophenyl)-6-methoxy-N-methyl-3,4′-bipyridine-5-carboxamide] | 10 to 50 nM |
| CCc1ccc(S(=O)(=O)Nc2cc(-c3ccnc(NC(C)=O)c3)cnc2C)cc1 [Compound I-44, N-(5-{[(4-ethylphenyl)sulfonyl]amino}-6-methyl-3,4′-bipyridin-2′-yl)acetamide] | < 10 nM |
| CC(=O)Nc1cc(-c2cnc(Cl)c(S(=O)(=O)NC34CC(C3)C4)c2)ccn1 [Compound I-366, N-[5-(bicyclo[1.1.1]pent-1-ylsulfamoyl)-6-chloro-3,4′-bipyridin-2′-yl]acetamide] | 10 to 50 nM |
| Cc1c(-c2ccnc(Nc3ccncn3)c2)cnc(Cl)c1NS(=O)(=O)c1ccccc1 [Compound I-309, N-[6-chloro-4-methyl-2′-(pyrimidin-4-ylamino)-3,4′-bipyridin-5-yl]benzenesulfonamide] | < 10 nM |
| Cc1nccc(Nc2cc(-c3cnc(C)c(C(=O)N(C)C45CC(C4)C5)c3)ccn2)n1 [Compound I-275, N-(bicyclo[1.1.1]pent-1-yl)-N,6-dimethyl-2′-[(2-methylpyrimidin-4-yl)amino]-3,4′-bipyridine-5-carboxamide] | 10 to 50 nM |
| CC(=O)Nc1cc(-c2cncc(Nc3ncco3)c2)ccn1 [Compound I-472, N-[5-(1,3-oxazol-2-ylamino)-3,4′-bipyridin-2′-yl]acetamide] | > 100 nM |
| Cc1c(-c2ccnc(Nc3ncc(C#N)cn3)c2)cnc(Cl)c1NS(=O)(=O)c1ccc(F)cc1F [Compound I-300, N-{6-chloro-2′-[(5-cyanopyrimidin-2-yl)amino]-4-methyl-3,4′-bipyridin-5-yl}-2,4-difluorobenzenesulfonamide] | 10 to 50 nM |
| CC(=O)Nc1cc(-c2cnc(C)c(NS(=O)(=O)c3ccc(Cl)cc3Cl)c2)ccn1 [Compound I-30, N-(5-{[(2,4-dichlorophenyl)sulfonyl]amino}-6-methyl-3,4′-bipyridin-2′-yl)acetamide] | < 10 nM |

Other lines, results leading:

| IC50 | SMILES |
| --- | --- |
| 10 to 50 nM | CC(=O)Nc1cc(-c2cnc(C)c(NS(C)(=O)=O)c2)ccn1 [Compound I-167, N-{6-methyl-5-[(methylsulfonyl)amino]-3,4′-bipyridin-2′-yl}acetamide] |
| 10 to 50 nM | O=C(c1cncc(-c2ccnc(Nc3ccnc(C4CC4)n3)c2)c1)N1CC(F)(F)C1 [Compound I-413, (2′-[(2-cyclopropylpyrimidin-4-yl)amino]-3,4′-bipyridin-5-yl)(3,3-difluoroazetidin-1-yl)methanone] |
| < 10 nM | COC(=O)Nc1cc(-c2cnc(Cl)c(NS(=O)(=O)c3ccc(F)cc3F)c2C)ccn1 [Compound I-255, methyl (6-chloro-5-{[(2,4-difluorophenyl)sulfonyl]amino}-4-methyl-3,4′-bipyridin-2′-yl)carbamate] |
| < 10 nM | CC(=O)Nc1cc(-c2cnc(C)c(NS(=O)(=O)c3cccc(F)c3)c2)ccn1 [Compound I-155, N-(5-{[(3-fluorophenyl)sulfonyl]amino}-6-methyl-3,4′-bipyridin-2′-yl)acetamide] |
| 10 to 50 nM | CC(=O)Nc1cc(-c2cnc(N)c(S(=O)(=O)Cc3ccccc3)c2)ccn1 [Compound I-6, N-[6-amino-5-(benzylsulfonyl)-3,4′-bipyridin-2′-yl]acetamide] |
| 50 to 100 nM | CNc1ncc(-c2ccnc(NC(C)=O)c2)c(C)c1S(=O)(=O)NC(C)(C)C [Compound I-436] |
| < 10 nM | CC(=O)Nc1cc(-c2cnc(N)c(N3CCCS3(=O)=O)c2)ccn1 [Compound I-181, N-[6-amino-5-(1,1-dioxidoisothiazolidin-2-yl)-3,4′-bipyridin-2′-yl]acetamide] |
